Laboratory results taken from ChEMBL document CHEMBL1255302, “Genetic structures at the origin of acquisition of the beta-lactamase bla KPC gene” (2008).
Converted amounts (≈) assume the structure as drawn.

Experiments:
Format in all cases: functional
Escherichia coli [1] = experiment: Antibacterial activity against Escherichia coli DH10B expressing blaKPC gene by Etest method
Pseudomonas aeruginosa [2] = experiment: Antibacterial activity against Pseudomonas aeruginosa 2404 plasmid by Etest method
Klebsiella pneumoniae [3] = experiment: Antibacterial activity against Klebsiella pneumoniae KN2303 by Etest method
Escherichia coli [4] = experiment: Antibacterial activity against Escherichia coli harboring pNGR plasmid expressing blaKPC gene by Etest method
Klebsiella pneumoniae [5] = experiment: Antibacterial activity against Klebsiella pneumoniae 633 by Etest method
Escherichia coli [6] = experiment: Antibacterial activity against Escherichia coli harboring pCOL plasmid expressing blaKPC gene by Etest method
Escherichia coli [7] = experiment: Antibacterial activity against Escherichia coli harboring pBC2303 expressing blaKPC gene plasmid by Etest method
Escherichia coli [8] = experiment: Antibacterial activity against Escherichia coli harboring pRYC plasmid expressing blaKPC gene by Etest method
Pseudomonas aeruginosa [9] = experiment: Antibacterial activity against Pseudomonas aeruginosa KG2505 harboring pCOL plasmid by Etest method
Klebsiella pneumoniae [10] = experiment: Antibacterial activity against Klebsiella pneumoniae GR by Etest method
Pseudomonas aeruginosa [11] = experiment: Antibacterial activity against Pseudomonas aeruginosa KG2505 by Etest method
Escherichia coli [12] = experiment: Antibacterial activity against Escherichia coli harboring pBC633 plasmid expressing blaKPC gene by Etest method
Escherichia coli [13] = experiment: Antibacterial activity against Escherichia coli harboring pNYC plasmid expressing blaKPC gene by Etest method
Klebsiella pneumoniae [14] = experiment: Antibacterial activity against Klebsiella pneumoniae YC by Etest method
Klebsiella pneumoniae [15] = experiment: Antibacterial activity against Klebsiella pneumoniae 633 by Etest method in presence of beta-lactamase inhibitor clavulanic acid
Klebsiella pneumoniae [16] = experiment: Antibacterial activity against Klebsiella pneumoniae YC by Etest method in presence of beta-lactamase inhibitor clavulanic acid
Escherichia coli [17] = experiment: Antibacterial activity against Escherichia coli harboring pCOL plasmid expressing blaKPC gene by Etest method in presence of beta-lactamase inhibitor clavulanic acid
Escherichia coli [18] = experiment: Antibacterial activity against Escherichia coli harboring pBC633 plasmid expressing blaKPC gene by Etest method in presence of beta-lactamase inhibitor clavulanic acid
Escherichia coli [19] = experiment: Antibacterial activity against Escherichia coli harboring pNYC plasmid expressing blaKPC gene by Etest method in presence of beta-lactamase inhibitor clavulanic acid
Pseudomonas aeruginosa [20] = experiment: Antibacterial activity against Pseudomonas aeruginosa KG2505 harboring pCOL plasmid by Etest method in presence of beta-lactamase inhibitor clavulanic acid
Pseudomonas aeruginosa [21] = experiment: Antibacterial activity against Pseudomonas aeruginosa 2404 plasmid by Etest method in presence of beta-lactamase inhibitor clavulanic acid
Klebsiella pneumoniae [22] = experiment: Antibacterial activity against Klebsiella pneumoniae GR by Etest method in presence of beta-lactamase inhibitor clavulanic acid
Klebsiella pneumoniae [23] = experiment: Antibacterial activity against Klebsiella pneumoniae KN2303 by Etest method in presence of beta-lactamase inhibitor clavulanic acid
Escherichia coli [24] = experiment: Antibacterial activity against Escherichia coli harboring pRYC plasmid expressing blaKPC gene by Etest method in presence of beta-lactamase inhibitor clavulanic acid
Pseudomonas aeruginosa [25] = experiment: Antibacterial activity against Pseudomonas aeruginosa KG2505 by Etest method in presence of beta-lactamase inhibitor clavulanic acid
Escherichia coli [26] = experiment: Antibacterial activity against Escherichia coli DH10B expressing blaKPC gene by Etest method in presence of beta-lactamase inhibitor clavulanic acid
Escherichia coli [27] = experiment: Antibacterial activity against Escherichia coli harboring pBC2303 expressing blaKPC gene plasmid by Etest method in presence of beta-lactamase inhibitor clavulanic acid
Escherichia coli [28] = experiment: Antibacterial activity against Escherichia coli harboring pNGR plasmid expressing blaKPC gene by Etest method in presence of beta-lactamase inhibitor clavulanic acid

CC(C)(O/N=C(\C(=O)N[C@@H]1C(=O)N2C(C(=O)[O-])=C(C[n+]3ccccc3)CS[C@H]12)c1csc(N)n1)C(=O)O [CEFTAZIDIME]
MIC (Escherichia coli [1]): 8 mg/L (≈ 14.6 µM) | MIC (Pseudomonas aeruginosa [2]): > 256 mg/L | MIC (Klebsiella pneumoniae [3]): > 256 mg/L | MIC (Escherichia coli [4]): 4 mg/L (≈ 7.32 µM) | MIC (Klebsiella pneumoniae [5]): > 256 mg/L | MIC (Escherichia coli [6]): 0.19 mg/L (≈ 0.348 µM) | MIC (Escherichia coli [7]): 256 mg/L (≈ 468 µM) | MIC (Escherichia coli [8]): > 256 mg/L | MIC (Pseudomonas aeruginosa [9]): > 256 mg/L | MIC (Klebsiella pneumoniae [10]): > 256 mg/L | MIC (Pseudomonas aeruginosa [11]): 1 mg/L (≈ 1.83 µM) | MIC (Escherichia coli [12]): 32 mg/L (≈ 58.5 µM) | MIC (Escherichia coli [13]): 4 mg/L (≈ 7.32 µM) | MIC (Klebsiella pneumoniae [14]): 64 mg/L (≈ 117 µM)

CC(=O)OCC1=C(C(=O)O)N2C(=O)[C@@H](NC(=O)Cc3cccs3)[C@H]2SC1 [CEPHALOTHIN]
MIC (Escherichia coli [1]): 256 mg/L (≈ 646 µM) | MIC (Pseudomonas aeruginosa [2]): > 256 mg/L | MIC (Klebsiella pneumoniae [3]): > 256 mg/L | MIC (Escherichia coli [4]): > 256 mg/L | MIC (Klebsiella pneumoniae [5]): > 256 mg/L | MIC (Escherichia coli [6]): 2 mg/L (≈ 5.04 µM) | MIC (Escherichia coli [7]): > 256 mg/L | MIC (Escherichia coli [8]): > 256 mg/L | MIC (Pseudomonas aeruginosa [9]): > 256 mg/L | MIC (Klebsiella pneumoniae [10]): > 256 mg/L | MIC (Pseudomonas aeruginosa [11]): 2 mg/L (≈ 5.04 µM) | MIC (Escherichia coli [12]): > 256 mg/L | MIC (Escherichia coli [13]): > 256 mg/L | MIC (Klebsiella pneumoniae [14]): > 256 mg/L

C[C@@H](O)[C@H]1C(=O)N2C(C(=O)O)=C(SCCNC=N)C[C@H]12 [IMIPENEM ANHYDROUS]
MIC (Escherichia coli [1]): 1.5 mg/L (≈ 5.01 µM) | MIC (Klebsiella pneumoniae [15]): 0.75 mg/L | MIC (Klebsiella pneumoniae [16]): 2 mg/L | MIC (Pseudomonas aeruginosa [2]): > 32 mg/L | MIC (Klebsiella pneumoniae [3]): > 32 mg/L | MIC (Escherichia coli [4]): 1.5 mg/L (≈ 5.01 µM) | MIC (Klebsiella pneumoniae [5]): > 32 mg/L | MIC (Escherichia coli [6]): 0.19 mg/L (≈ 0.635 µM) | MIC (Escherichia coli [7]): 1 mg/L (≈ 3.34 µM) | MIC (Escherichia coli [17]): 0.1 mg/L | MIC (Escherichia coli [18]): 0.75 mg/L | MIC (Escherichia coli [8]): 12 mg/L (≈ 40.1 µM) | MIC (Escherichia coli [19]): 2 mg/L | MIC (Pseudomonas aeruginosa [9]): > 32 mg/L | MIC (Klebsiella pneumoniae [10]): 12 mg/L (≈ 40.1 µM) | MIC (Pseudomonas aeruginosa [20]): 2 mg/L | MIC (Pseudomonas aeruginosa [21]): > 32 mg/L | MIC (Klebsiella pneumoniae [22]): 0.75 mg/L | MIC (Klebsiella pneumoniae [23]): > 32 mg/L | MIC (Escherichia coli [24]): 3 mg/L | MIC (Pseudomonas aeruginosa [25]): 0.19 mg/L | MIC (Pseudomonas aeruginosa [11]): 0.19 mg/L (≈ 0.635 µM) | MIC (Escherichia coli [12]): 6 mg/L (≈ 20 µM) | MIC (Escherichia coli [13]): 8 mg/L (≈ 26.7 µM) | MIC (Klebsiella pneumoniae [14]): 4 mg/L (≈ 13.4 µM) | MIC (Escherichia coli [26]): 0.38 mg/L

C[C@@H](O)[C@H]1C(=O)N2C(C(=O)O)=C(S[C@@H]3CN[C@H](C(=O)N(C)C)C3)[C@H](C)[C@H]12 [MEROPENEM]
MIC (Escherichia coli [1]): 0.38 mg/L (≈ 0.991 µM) | MIC (Klebsiella pneumoniae [15]): 2 mg/L | MIC (Klebsiella pneumoniae [16]): 1 mg/L | MIC (Pseudomonas aeruginosa [2]): > 32 mg/L | MIC (Klebsiella pneumoniae [3]): > 32 mg/L | MIC (Escherichia coli [4]): 0.38 mg/L (≈ 0.991 µM) | MIC (Klebsiella pneumoniae [5]): 4 mg/L (≈ 10.4 µM) | MIC (Escherichia coli [6]): 0.01 mg/L (≈ 0.0261 µM) | MIC (Escherichia coli [7]): 0.38 mg/L (≈ 0.991 µM) | MIC (Escherichia coli [17]): 0.002 mg/L | MIC (Escherichia coli [18]): 0.38 mg/L | MIC (Escherichia coli [27]): 0.12 mg/L | MIC (Escherichia coli [8]): 3 mg/L (≈ 7.82 µM) | MIC (Escherichia coli [19]): 0.25 mg/L | MIC (Pseudomonas aeruginosa [9]): > 32 mg/L | MIC (Klebsiella pneumoniae [10]): 6 mg/L (≈ 15.6 µM) | MIC (Pseudomonas aeruginosa [20]): 3 mg/L | MIC (Pseudomonas aeruginosa [21]): > 32 mg/L | MIC (Klebsiella pneumoniae [22]): 3 mg/L | MIC (Klebsiella pneumoniae [23]): > 32 mg/L | MIC (Escherichia coli [24]): 2 mg/L | MIC (Pseudomonas aeruginosa [25]): 0.01 mg/L | MIC (Escherichia coli [28]): 0.01 mg/L | MIC (Pseudomonas aeruginosa [11]): 0.05 mg/L (≈ 0.13 µM) | MIC (Escherichia coli [12]): 2 mg/L (≈ 5.22 µM) | MIC (Escherichia coli [13]): 2 mg/L (≈ 5.22 µM) | MIC (Klebsiella pneumoniae [14]): 2 mg/L (≈ 5.22 µM) | MIC (Escherichia coli [26]): 0.1 mg/L

CCN1CCN(C(=O)N[C@@H](C(=O)N[C@@H]2C(=O)N3[C@@H]2SC(C)(C)[C@@H]3C(=O)O)c2ccccc2)C(=O)C1=O [PIPERACILLIN]
MIC (Escherichia coli [1]): > 256 mg/L | MIC (Pseudomonas aeruginosa [2]): > 256 mg/L | MIC (Klebsiella pneumoniae [3]): > 256 mg/L | MIC (Escherichia coli [4]): 128 mg/L (≈ 247 µM) | MIC (Klebsiella pneumoniae [5]): > 256 mg/L | MIC (Escherichia coli [6]): 1.5 mg/L (≈ 2.9 µM) | MIC (Escherichia coli [7]): > 256 mg/L | MIC (Escherichia coli [8]): > 256 mg/L | MIC (Pseudomonas aeruginosa [9]): > 256 mg/L | MIC (Klebsiella pneumoniae [10]): > 256 mg/L | MIC (Pseudomonas aeruginosa [11]): 0.38 mg/L (≈ 0.734 µM) | MIC (Escherichia coli [12]): > 256 mg/L | MIC (Escherichia coli [13]): > 256 mg/L | MIC (Klebsiella pneumoniae [14]): > 256 mg/L

CC1(C)S[C@@H]2[C@H](NC(=O)[C@H](C(=O)O)c3ccsc3)C(=O)N2[C@H]1C(=O)O [TICARCILLIN]
MIC (Escherichia coli [1]): > 256 mg/L | MIC (Klebsiella pneumoniae [15]): > 256 mg/L | MIC (Klebsiella pneumoniae [16]): > 256 mg/L | MIC (Pseudomonas aeruginosa [2]): > 256 mg/L | MIC (Klebsiella pneumoniae [3]): > 256 mg/L | MIC (Escherichia coli [4]): > 256 mg/L | MIC (Klebsiella pneumoniae [5]): > 256 mg/L | MIC (Escherichia coli [6]): 2 mg/L (≈ 5.2 µM) | MIC (Escherichia coli [7]): > 256 mg/L | MIC (Escherichia coli [17]): 1.5 mg/L | MIC (Escherichia coli [18]): > 256 mg/L | MIC (Escherichia coli [27]): > 256 mg/L | MIC (Escherichia coli [8]): > 256 mg/L | MIC (Escherichia coli [19]): > 256 mg/L | MIC (Pseudomonas aeruginosa [9]): > 256 mg/L | MIC (Klebsiella pneumoniae [10]): > 256 mg/L | MIC (Pseudomonas aeruginosa [20]): > 256 mg/L | MIC (Pseudomonas aeruginosa [21]): > 256 mg/L | MIC (Klebsiella pneumoniae [22]): > 256 mg/L | MIC (Klebsiella pneumoniae [23]): > 256 mg/L | MIC (Escherichia coli [24]): > 256 mg/L | MIC (Pseudomonas aeruginosa [25]): 0.25 mg/L | MIC (Escherichia coli [28]): > 256 mg/L | MIC (Pseudomonas aeruginosa [11]): 0.38 mg/L (≈ 0.988 µM) | MIC (Escherichia coli [12]): > 256 mg/L | MIC (Escherichia coli [13]): > 256 mg/L | MIC (Klebsiella pneumoniae [14]): > 256 mg/L | MIC (Escherichia coli [26]): > 256 mg/L
